{"source": "patent US20050032863A1", "about": "“Method of treating or preventing central nervous system disorders with compounds having selectivity for the alpha 3 subunit of the benzodiazepine receptor” (priority 2003, published 2005)", "key": {"[1]": {"target": "T1, recombinant rat α3β2γ2 GABAA receptors (Rattus norvegicus, UniProt P20236)", "T1 construct": "expressed in transfected cells; host or cells: HEK 293", "T1 sequence (P20236 29-493)": "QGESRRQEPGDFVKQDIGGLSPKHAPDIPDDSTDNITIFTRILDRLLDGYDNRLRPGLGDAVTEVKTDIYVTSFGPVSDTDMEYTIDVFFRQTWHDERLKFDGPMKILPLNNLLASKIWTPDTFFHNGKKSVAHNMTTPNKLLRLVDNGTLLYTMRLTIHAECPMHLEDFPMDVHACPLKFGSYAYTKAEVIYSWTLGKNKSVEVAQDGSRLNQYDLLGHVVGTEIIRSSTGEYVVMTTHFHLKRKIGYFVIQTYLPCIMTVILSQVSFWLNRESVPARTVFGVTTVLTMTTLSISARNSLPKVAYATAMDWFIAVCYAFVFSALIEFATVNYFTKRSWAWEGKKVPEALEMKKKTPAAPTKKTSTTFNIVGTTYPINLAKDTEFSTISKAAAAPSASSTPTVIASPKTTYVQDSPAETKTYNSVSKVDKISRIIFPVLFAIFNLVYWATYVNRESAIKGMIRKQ", "assay": "Whole-cell patch-clamp, modulation of GABA (EC20)-induced currents in transfected HEK 293 cells, α3β2γ2", "type": "cell-based", "procedure": "For electrophysiological recording HEK-293 cells were passaged and replated on 12-mm glass coverslips located in 9.6-cm plastic dishes filled with 10 ml of Minimum Essential Medium (MEM, Gibco) supplemented with 158 mg/l sodium bicarbonate, 2 mM glutamine (Gibco), 100 U/ml penicillin-streptomycin (Gibco), and 10% foetal calf serum (Gibco). Cultures were maintained at 37° C. in a humidified […]/5% CO2 atmosphere for 2-3 days.\nTransfection with recombinant rat GABAA receptors was carried out as described in detail (Korpi and Lüddens, 1993, Lüddens and Korpi, 1995b). Briefly, HEK 293 cells were transfected in triple combinations using the phosphate precipitation method with rat GABAA receptor cDNAs in eukaryotic expression vectors (Pritchett, 1990) for the α, β and γ subunits. For optimal receptor expression, final concentrations (μg vector DNA per 9.6 cm tissue culture plate) were: α1, 2; α2 4.8; α3, 1.2; α4, 10; α5, 0.8; β2, 0.4; and γ2S, 0.3. The γ2S variant is abbreviated γ2 in the remainder of the text. To identify transfected cells all subunit combinations were co-transfected with 1 μg per plate of pNI-EGFP.\nTwo days after transfection single coverslips containing HEK 293 cells were placed in a recording chamber mounted on the movable stage of a fluorescence microscope (Olympus IX70) and perfused with a defined saline solution containing (in mM): 130 NaCl, 5.4 KCl, 2 CaCl2, 2 MgSO4, 10 glucose, 5 sucrose, and 10 HEPES (free acid), pH adjusted to 7.35 with about 35 mM NaOH. Transfected cells were identified by their green fluorescence due to the expression of the pNI-EGFP vector and ligand-mediated membrane currents of these cells were studied in the whole-cell configuration of the patch-clamp technique (Hamil et al., 1981). Patch-clamp pipettes were pulled from hard borosilicate capillary glass (0.5 mm ID, 1.5 mm OD, Vitrex, Science Products GmbH, Hofheim, Germany) using a horizontal puller (Sutter Instruments, CA, Model P-97) in a multi-stage process.\nSeal resistances >1 GΩ were routinely obtained by applying gentle suction to the pipettes. Membrane rupture was monitored electrically as an increase in capacity. Pipette capacitance, membrane capacitance, and series resistance were electronically compensated to achieve minimal capacitative transients. A series resistance compensation of >60% was regularly used.\nIn all cells recorded the presence of the γ2 subunit in the heteropentamere was monitored by the application of 1 μM zolpidem plus the EC20 of GABA before testing the experimental drugs.\nResponses of the cells were recorded by a patch-clamp amplifier (EPC-8, HEKA-Electronic, Lambrecht, Germany) in conjunction with a standard personal computer and the pClamp 8.1 software package (Axon Instruments, Foster City, Calif.). The standard holding-potential for the cells was −40 mV. Whole cell currents were low-pass filtered by an eight-pole Bessel filter at 5 or 3 kHz before being digitised by a Digidata 1322A interface (Axon Instruments, Foster City, Calif.) and recorded by the computer at a sampling rate of at least […].\nEfficacy, potency, and GABAA receptor a subunit specificity of the new compound ELB139 was tested with the whole cell configuration of the patch-clamp technique by applying increasing drug concentration together with GABA of the approximate EC20 on green fluorescing cells. BZ binding site specificity of the new compound was tested on the same cells in an identical experimental setting with additionally applying 10 μM Ro15-1788."}, "[2]": {"tested_on": "extracellular 5-HT, HIAA and dopamine in the striatum of rats", "assay": "Microdialysis in the striatum of rats (Example 3)", "type": "in vivo, rat", "details": "30 mg/kg i.p.", "procedure": "The day before the experiment, male rats were anaesthetised with chloral hydrate (3.6%, 1 ml/100 g i.p.) and placed in a stereotaxic frame to implant a microdialysis guide cannula (CMA/12, Carnegie Medicine, Sweden). Scalp was incised in the median anterior-posterior direction between lambda and bregma and a small hole was drilled into the skull. The stereotaxic coordinates were AP=+1.0 mm, L=−3.0 mm from bregma and 1.5 mm from the skull surface for the striatum according to the atlas of Paxinos and Watson, (1986) (1). Dental cement (Sinfony(2)) was used to fix the guide cannula and anchor screws to the cranium. During the surgery rectal temperature was maintained at 37° C. using a heating blanket.\nThe day before the experiment the microdialysis probe (CMA/12, membrane length 4 mm, Carnegie Medicin, Sweden) was inserted into the striatum through the guide cannula. On the day of experiment the probe was perfused with Ringer solution (148 mM NaCl, 4 mM KCl, 2,4 mM CaCl2, pH=6,0). The flow rate (1 μl/min) allowed to collect 20 μl samples every 20 minutes into microvials. Microvials were stored in a fraction collector (CMA/170) at a temperature of 8° C. until analysed. Using a swivel joint the perfusion arrangement allowed the animal to move freely within a hemispherical bowl. After an adjusting time of one hour 3 consecutive 20-min-fractions were collected to establish a stable basal level of neurotransmitter release.\nThereafter 30 mg/kg E131-00139 or an equivalent volume of 0.5% tylose/PEG300 9:1, respectively, was administered. Then collecting samples was continued for at least 220 minutes.\nDialysates were directly analysed by reverse-phase high-performance liquid chromatography with electrochemical detection (HPLC-EC). The samples were separated by a ZORBAX SB-Aq 2.1 mm ID×100 mm column (Agilent Technologies). […]\nTherefore data of each animal were expressed as percentages. Data from dialysates before administering the substances were averaged, and the mean set as 100%; all individual values were calculated accordingly."}, "serotonine transporters": {"tested_on": "serotonine transporters", "assay": "Uptake of serotonine in a synaptosomal preparation", "type": "biochemical"}}, "note": "Several values for one entry are separate records, joined by “and”; a condition that tells them apart may be missing. Equal entries are not always repeated."}
{"compound": "O=C1N=C(N2CCCCC2)CN1c1ccc(Cl)cc1", "note": "[ELB139, 1-(4-chlorophenyl)-4-piperidinoimidazolin-2-one]", "values": [{"measurement": "concentrations at which positive current modulation was observable", "setting": "[1]; α3-containing receptors", "value": "above 30 nM"}, {"measurement": "highest efficacy / maximal stimulation of GABA-induced current", "setting": "[1]; α3-containing receptors, ELB139 at concentrations above 0.3 μM, diazepam at 1 μM", "value": "1.3±0.07 fold and 1.3 fold"}, {"measurement": "effect of 10 μM Ro15-1788 on the current enhancement by the compound", "setting": "[1]; α3β2γ2, co-applied 10 μM Ro15-1788 (flumazenil)", "value": "completely abolished"}, {"measurement": "Potentiation* (ELB139)", "setting": "[1]; α3β2γ2, with GABA EC20, graphically determined", "value": "1.3 ± 0.07"}, {"measurement": "EC50", "setting": "[1]; α3β2γ2, with GABA EC20, value marked * = graphically determined, read-out: EC50 (ELB139)", "value": 60, "unit": "nM"}, {"measurement": "HIAA concentration in the striatum", "setting": "[2]", "value": "without influencing"}, {"measurement": "dopamine concentration in the striatum", "setting": "[2]", "value": "did also not influence"}, {"measurement": "5-HT concentration in the striatum", "setting": "[2]; vs tylose vehicle", "value": "significantly and unexpectedly increased"}, {"measurement": "uptake of serotonine", "setting": "serotonine transporters", "value": "no effect"}]}
